Measurements from the supplement of paper PMC11665569.
± gives the standard deviation of the averaged measurements.

What was measured:
Assay in all cases: relative viability (fraction of vehicle control); higher = more viable / less inhibited
Settings in all cases: treatment time: 5 days
SW1573 = test system: SW1573
Description: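 CCK-8 viability of SW1573 cells transfected with control, YAP/TAZ or TEAD1-4 siRNAs and treated with KRAS G12C inhibitors for 5 days. Values are normalised to vehicle control.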

H2030 = test system: H2030
Description: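 CCK-8 viability of H2030 cells transfected with control, YAP/TAZ or TEAD1-4 siRNAs and treated with KRAS G12C inhibitors for 5 days. Values are normalised to vehicle control.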

H358 = test system: H358
Description: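 CCK-8 viability of H358 cells with empty vector or constitutively active YAP S127A, treated with KRAS G12C inhibitors for 5 days. Absorbance at 450 nm normalised to vehicle control.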

[1] = log10 concentration (uM): 0, siRNA knockdown: TEAD1-4 siRNA 1
[2] = log10 concentration (uM): 0, siRNA knockdown: TEAD1-4 siRNA 2
[3] = log10 concentration (uM): 0, siRNA knockdown: YAP/TAZ siRNA 1
[4] = log10 concentration (uM): 0, siRNA knockdown: YAP/TAZ siRNA 2
[5] = log10 concentration (uM): 0, siRNA knockdown: negative control siRNA
[6] = log10 concentration (uM): 0.39794, siRNA knockdown: TEAD1-4 siRNA 1
[7] = log10 concentration (uM): 0.39794, siRNA knockdown: TEAD1-4 siRNA 2
[8] = log10 concentration (uM): 0.39794, siRNA knockdown: YAP/TAZ siRNA 1
[9] = log10 concentration (uM): 0.39794, siRNA knockdown: YAP/TAZ siRNA 2
[10] = log10 concentration (uM): 0.39794, siRNA knockdown: negative control siRNA
[11] = log10 concentration (uM): 0.69897, siRNA knockdown: TEAD1-4 siRNA 1
[12] = log10 concentration (uM): 0.69897, siRNA knockdown: TEAD1-4 siRNA 2
[13] = log10 concentration (uM): 0.69897, siRNA knockdown: YAP/TAZ siRNA 1
[14] = log10 concentration (uM): 0.69897, siRNA knockdown: YAP/TAZ siRNA 2
[15] = log10 concentration (uM): 0.69897, siRNA knockdown: negative control siRNA
[16] = log10 concentration (uM): 1, siRNA knockdown: TEAD1-4 siRNA 1
[17] = log10 concentration (uM): 1, siRNA knockdown: TEAD1-4 siRNA 2
[18] = log10 concentration (uM): 1, siRNA knockdown: YAP/TAZ siRNA 1
[19] = log10 concentration (uM): 1, siRNA knockdown: YAP/TAZ siRNA 2
[20] = log10 concentration (uM): 1, siRNA knockdown: negative control siRNA
[21] = log10 concentration (uM): 1.301029996, siRNA knockdown: TEAD1-4 siRNA 1
[22] = log10 concentration (uM): 1.301029996, siRNA knockdown: TEAD1-4 siRNA 2
[23] = log10 concentration (uM): 1.301029996, siRNA knockdown: YAP/TAZ siRNA 1
[24] = log10 concentration (uM): 1.301029996, siRNA knockdown: YAP/TAZ siRNA 2
[25] = log10 concentration (uM): 1.301029996, siRNA knockdown: negative control siRNA
[26] = log10 concentration (uM): -0.30103, siRNA knockdown: TEAD1-4 siRNA 1
[27] = log10 concentration (uM): -0.30103, siRNA knockdown: TEAD1-4 siRNA 2
[28] = log10 concentration (uM): -0.30103, siRNA knockdown: YAP/TAZ siRNA 1
[29] = log10 concentration (uM): -0.30103, siRNA knockdown: YAP/TAZ siRNA 2
[30] = log10 concentration (uM): -0.30103, siRNA knockdown: negative control siRNA
[31] = log10 concentration (uM): -0.60206, siRNA knockdown: TEAD1-4 siRNA 1
[32] = log10 concentration (uM): -0.60206, siRNA knockdown: TEAD1-4 siRNA 2
[33] = log10 concentration (uM): -0.60206, siRNA knockdown: YAP/TAZ siRNA 1
[34] = log10 concentration (uM): -0.60206, siRNA knockdown: YAP/TAZ siRNA 2
[35] = log10 concentration (uM): -0.60206, siRNA knockdown: negative control siRNA
[36] = log10 concentration (uM): -1, siRNA knockdown: TEAD1-4 siRNA 1
[37] = log10 concentration (uM): -1, siRNA knockdown: TEAD1-4 siRNA 2
[38] = log10 concentration (uM): -1, siRNA knockdown: YAP/TAZ siRNA 1
[39] = log10 concentration (uM): -1, siRNA knockdown: YAP/TAZ siRNA 2
[40] = log10 concentration (uM): -1, siRNA knockdown: negative control siRNA
[41] = log10 concentration (uM): -2, siRNA knockdown: TEAD1-4 siRNA 1
[42] = log10 concentration (uM): -2, siRNA knockdown: TEAD1-4 siRNA 2
[43] = log10 concentration (uM): -2, siRNA knockdown: YAP/TAZ siRNA 1
[44] = log10 concentration (uM): -2, siRNA knockdown: YAP/TAZ siRNA 2
[45] = log10 concentration (uM): -2, siRNA knockdown: negative control siRNA

## C=CC(=O)N1CCN(c2ncnc3c(F)c(-c4c(O)cccc4F)c(Cl)cc23)CC1 [ARS1620]
SW1573; [1]
  relative viability: 0.394 ± 0.013
SW1573; [2]
  relative viability: 0.45 ± 0.089
SW1573; [3]
  relative viability: 0.174 ± 0.025
SW1573; [4]
  relative viability: 0.156 ± 0.018
SW1573; [5]
  relative viability: 0.929 ± 0.035
SW1573; [6]
  relative viability: 0.297 ± 0.011
SW1573; [7]
  relative viability: 0.376 ± 0.026
SW1573; [8]
  relative viability: 0.172 ± 0.013
SW1573; [9]
  relative viability: 0.15 ± 0.012
SW1573; [10]
  relative viability: 0.952 ± 0.036
SW1573; [11]
  relative viability: 0.273 ± 0.021
SW1573; [12]
  relative viability: 0.381 ± 0.067
SW1573; [13]
  relative viability: 0.186 ± 0.025
SW1573; [14]
  relative viability: 0.175 ± 0.012
SW1573; [15]
  relative viability: 0.952 ± 0.052
SW1573; [16]
  relative viability: 0.189 ± 0.011
SW1573; [17]
  relative viability: 0.351 ± 0.023
SW1573; [18]
  relative viability: 0.2 ± 0.013
SW1573; [19]
  relative viability: 0.182 ± 0.006
SW1573; [20]
  relative viability: 0.94 ± 0.054
SW1573; [21]
  relative viability: 0.0763 ± 0.0018
SW1573; [22]
  relative viability: 0.233 ± 0.023
SW1573; [23]
  relative viability: 0.136 ± 0.0089
SW1573; [24]
  relative viability: 0.139 ± 0.003
SW1573; [25]
  relative viability: 0.464 ± 0.11
SW1573; [26]
  relative viability: 0.413 ± 0.051
SW1573; [27]
  relative viability: 0.47 ± 0.062
SW1573; [28]
  relative viability: 0.236 ± 0.013
SW1573; [29]
  relative viability: 0.209 ± 0.018
SW1573; [30]
  relative viability: 0.908 ± 0.02
SW1573; [31]
  relative viability: 0.655 ± 0.054
SW1573; [32]
  relative viability: 0.614 ± 0.015
SW1573; [33]
  relative viability: 0.29 ± 0.028
SW1573; [34]
  relative viability: 0.306 ± 0.013
SW1573; [35]
  relative viability: 0.964 ± 0.049
SW1573; [36]
  relative viability: 0.683 ± 0.081
SW1573; [37]
  relative viability: 0.614 ± 0.065
SW1573; [38]
  relative viability: 0.41 ± 0.029
SW1573; [39]
  relative viability: 0.417 ± 0.019
SW1573; [40]
  relative viability: 0.976 ± 0.022
SW1573; [41]
  relative viability: 0.9354 ± 0.0084
SW1573; [42]
  relative viability: 1.01 ± 0.12
SW1573; [43]
  relative viability: 0.817 ± 0.014
SW1573; [44]
  relative viability: 0.82 ± 0.018
SW1573; [45]
  relative viability: 1.02 ± 0.045
H2030; [1]
  relative viability: 0.502 ± 0.026
H2030; [2]
  relative viability: 0.522 ± 0.021
H2030; [3]
  relative viability: 0.521 ± 0.043
H2030; [4]
  relative viability: 0.482 ± 0.031
H2030; [5]
  relative viability: 0.948 ± 0.085
H2030; [6]
  relative viability: 0.429 ± 0.021
H2030; [7]
  relative viability: 0.365 ± 0.038
H2030; [8]
  relative viability: 0.499 ± 0.17
H2030; [9]
  relative viability: 0.448 ± 0.021
H2030; [10]
  relative viability: 0.927 ± 0.11
H2030; [11]
  relative viability: 0.257 ± 0.023
H2030; [12]
  relative viability: 0.256 ± 0.0087
H2030; [13]
  relative viability: 0.369 ± 0.049
H2030; [14]
  relative viability: 0.386 ± 0.026
H2030; [15]
  relative viability: 0.874 ± 0.18
H2030; [16]
  relative viability: 0.151 ± 0.019
H2030; [17]
  relative viability: 0.168 ± 0.0044
H2030; [18]
  relative viability: 0.216 ± 0.027
H2030; [19]
  relative viability: 0.261 ± 0.015
H2030; [20]
  relative viability: 0.742 ± 0.3
H2030; [21]
  relative viability: 0.0456 ± 0.0077
H2030; [22]
  relative viability: 0.0819 ± 0.006
H2030; [23]
  relative viability: 0.114 ± 0.024
H2030; [24]
  relative viability: 0.14 ± 0.0034
H2030; [25]
  relative viability: 0.217 ± 0.15
H2030; [26]
  relative viability: 0.562 ± 0.024
H2030; [27]
  relative viability: 0.478 ± 0.083
H2030; [28]
  relative viability: 0.627 ± 0.099
H2030; [29]
  relative viability: 0.641 ± 0.059
H2030; [30]
  relative viability: 0.985 ± 0.052
H2030; [31]
  relative viability: 0.646 ± 0.051
H2030; [32]
  relative viability: 0.616 ± 0.056
H2030; [33]
  relative viability: 0.695 ± 0.097
H2030; [34]
  relative viability: 0.731 ± 0.011
H2030; [35]
  relative viability: 0.992 ± 0.041
H2030; [36]
  relative viability: 0.742 ± 0.077
H2030; [37]
  relative viability: 0.639 ± 0.026
H2030; [38]
  relative viability: 0.753 ± 0.033
H2030; [39]
  relative viability: 0.78 ± 0.031
H2030; [40]
  relative viability: 0.997 ± 0.037
H2030; [41]
  relative viability: 0.922 ± 0.088
H2030; [42]
  relative viability: 1.12 ± 0.16
H2030; [43]
  relative viability: 0.976 ± 0.036
H2030; [44]
  relative viability: 0.922 ± 0.061
H2030; [45]
  relative viability: 1.02 ± 0.023
H358; log10 concentration (uM): 0, ectopic expression: YAP S127A
  relative viability: 0.842 ± 0.076
H358; log10 concentration (uM): 0, ectopic expression: empty vector (YAP experiment)
  relative viability: 0.6 ± 0.076
H358; log10 concentration (uM): 0.39794, ectopic expression: YAP S127A
  relative viability: 0.833 ± 0.076
H358; log10 concentration (uM): 0.39794, ectopic expression: empty vector (YAP experiment)
  relative viability: 0.389 ± 0.0096
H358; log10 concentration (uM): 0.69897, ectopic expression: YAP S127A
  relative viability: 0.617 ± 0.038
H358; log10 concentration (uM): 0.69897, ectopic expression: empty vector (YAP experiment)
  relative viability: 0.306 ± 0.025
H358; log10 concentration (uM): 1, ectopic expression: YAP S127A
  relative viability: 0.558 ± 0.014
H358; log10 concentration (uM): 1, ectopic expression: empty vector (YAP experiment)
  relative viability: 0.217 ± 0.044
H358; log10 concentration (uM): 1.301029996, ectopic expression: YAP S127A
  relative viability: 0.383 ± 0.058
H358; log10 concentration (uM): 1.301029996, ectopic expression: empty vector (YAP experiment)
  relative viability: 0.128 ± 0.042
H358; log10 concentration (uM): -0.30103, ectopic expression: YAP S127A
  relative viability: 0.942 ± 0.088
H358; log10 concentration (uM): -0.30103, ectopic expression: empty vector (YAP experiment)
  relative viability: 0.711 ± 0.025
H358; log10 concentration (uM): -0.60206, ectopic expression: YAP S127A
  relative viability: 0.958 ± 0.11
H358; log10 concentration (uM): -0.60206, ectopic expression: empty vector (YAP experiment)
  relative viability: 0.806 ± 0.16
H358; log10 concentration (uM): -1, ectopic expression: YAP S127A
  relative viability: 0.808 ± 0.23
H358; log10 concentration (uM): -1, ectopic expression: empty vector (YAP experiment)
  relative viability: 0.883 ± 0.087
H358; log10 concentration (uM): -2, ectopic expression: YAP S127A
  relative viability: 0.792 ± 0.076
H358; log10 concentration (uM): -2, ectopic expression: empty vector (YAP experiment)
  relative viability: 0.75 ± 0.13
